According to patent US9540389B2, “Antimicrobial potentiators” (priority 2013, dated 2017):

Columns and labels:
Experiment in all cases: Time-kill assay (CIP and/or EPI)
Format in all cases: cell-based
[1] = tested on: K. pneumoniae ATCC 700603; conditions: Klebsiella pneumoniae; 25 μM EPI + CIP 0.5 or 1×MIC
Protocol: (§1) Panel (C): Bactericidal activity of CIP alone, 25 μM MBX2319 alone, or 25 μM MBX2319 combined with a bacteriostatic concentration of CIP against E. coli AB1157 and isogenic efflux defective mutants after 2 hours exposure. […] Panel (D): Bactericidal activity of CIP alone, 25 μM MBX2319 alone, 25 μM PAβN alone, and a bacteriostatic concentration of CIP combined with 25 μM MBX2319 or combined with 25 μM PAβN against the following organisms: a) E. coli AB1157, b) E. coli ATCC 25922, c) K. pneumoniae ATCC 700603, d) S. flexneri ATCC 12022, e) S. enterica ATCC 14028, f) E. aerogenes ATCC 13048.
(§2) • Strains and Reagents. The following strains were obtained from the Keio collection (Baba, et al.: Construction of Escherichia coli K-12 in-frame, single-gene knockout mutants: the Keio collection. In Mol Syst Biol, vol. 2, pp. 2006 0008, (2006)): JW0451 (ΔacrB::kan), JW5503 (ΔtolC::kan), JW3234 (ΔacrF::kan), JW2661 (ΔemrB::kan), JW0863 (ΔmacB::kan). The deletion mutations in each of these strains were transferred to AB1157 using P1 phage transduction (see Table 1). […] The minimal inhibitory concentration (MIC) of antibacterial agents and biocides were determined using the microbroth dilution method essentially as described in the CLSI protocol M7-A7 (CLSI: Method for dilution antimicrobial susceptibility testing for bacteria that grow aerobically; Approved standard-document M7-A7. In Clinical and Laboratory Standards Institute document M7-A7, Clinical and Laboratory Standards Institute, Wayne, Pa., (2006)), with the following exceptions. […] MIC assays were performed in triplicate and the geometric mean was calculated. […] Viability was monitored over 2-4 hours by making serial dilutions in saline and spotting 5 μl of each dilution onto the surface of an LB agar plate in triplicate. Colonies were counted after the plates were incubated at 37° C. for 16-18 hr, colony forming units (CFU) per ml were calculated, and the average and standard deviation for the three replicates was determined. […]

[2] = tested on: S. enterica ATCC 14028; conditions: Salmonella enterica; 25 μM EPI + CIP 0.5 or 1×MIC
Protocol: as §1, §2

[3] = tested on: E. aerogenes ATCC 13048; conditions: Enterobacter aerogenes; 25 μM EPI + CIP 0.5 or 1×MIC
Protocol: as §1, §2

Measured: decreased viability as compared to CIP alone

CC1(C)Cc2c(C#N)c(SCCc3ccccc3)nc(N3CCOCC3)c2CO1 [MBX2319]
100-1000 fold: all assays above
